This is an account of results in US20260027126A1, “COMBINATION THERAPY FOR TREATING CANCERS” (GEISTLICH PHARMA AG, priority 2022, published 2026).

The structures appear in SMILES notation. “Also recorded” adds a separate entry of the source.

Data set [1] concerns high-grade ovarian cancer cells (OVCAR8) labeled with luciferase gene. Kind of data set: in vivo therapy experiment, orthotopic OVCAR8-L ovarian cancer mouse model. Further details: species or system mice. Conditions: GP-2250 500 mg/kg 3 times per week i.p., PARP inhibitor 50 mg/kg 5 times per week i.p., take down day 49. As for the experimental part:
FIG. 1 schematically illustrates the experimental design for in vivo testing of the GP-2250 and PARP inhibitors on OVCAR8-L mice. The experiment includes testing: vehicle control, Ringer's solution (10 mice, 200 μl, i.p.); 2) GP-2250 (10 mice, 500 mg/kg. 3 times per week, i.p.); 3) Olaparib (10 mice, 50 mg/kg, 5 times per week, i.p.); 4) the combination of GP-2250 and Olaparib; 5) Niraparib (10 mice, 50 mg/kg, 5 times per week, i.p.); 6) the combination of GP-2250 and Niraparib (10 mice): 7) Rucparib (10 mice, 50 mg/kg, 5 times per week, i.p.); 8) the combination of GP-2250 and Rucaparib . . .
Tumorigenicity of OVCAR8-L was determined using IVIS imaging. IVIS imaging following OCVAR8-L injection. 1×10^6 cells were injected through i.p., and then tumorigenicity was measured. All mice were injected with high-grade ovarian cancer cells (OVCAR8) labeled with luciferase gene by i.p. route.
(§1) In vivo model of ovarian cancer: Pharmacodynamic study and therapeutic experiment using OVCAR8 ovarian cancer model were performed.

The test system of data set [2] is ovarian cancer cell lines. As to the kind of experiment: cytotoxic effect / cell viability assay in ovarian cancer cell lines. It counts as cell-based, Human. The protocol: (§2) Human Ovarian cancer cell lines: A2780, Coav3, HeyA8, HeyA8-MDR, Kuramochi, OVCAR3, OVCAR5, OVCAR8, and SKOV3 were obtained and used in studies.
(§3) In vitro assays: Cell viability assay, Western blotting, Colony formation assay, Reverse-phase protein array, and Ultra-high resolution mass spectrometry analysis were performed.
as §1

For another data set, the system named is HIF-1α. As to the kind of experiment: Reverse Phase Protein Array / Western blotting of ovarian cancer cells: HIF-1α. Type of data set: cell-based, Human. As for the experimental part:
as §2, §3

The test system of data set [3] is AKT. As to the kind of experiment: Reverse Phase Protein Array / Western blotting of ovarian cancer cells: AKT. It counts as cell-based, Human. As for the experimental part: as §2, §3
In data set [4] the test system is mTOR. As to the kind of experiment: Reverse Phase Protein Array / Western blotting of ovarian cancer cells: mTOR. Type of data set: cell-based, Human. As for the experimental part: as §2, §3
The target in a further data set is T1, hexokinase2 (Homo sapiens, UniProt P52789).
T1 construct: endogenous in cells; host or cells: human ovarian cancer cell lines
T1 sequence (P52789 1-917): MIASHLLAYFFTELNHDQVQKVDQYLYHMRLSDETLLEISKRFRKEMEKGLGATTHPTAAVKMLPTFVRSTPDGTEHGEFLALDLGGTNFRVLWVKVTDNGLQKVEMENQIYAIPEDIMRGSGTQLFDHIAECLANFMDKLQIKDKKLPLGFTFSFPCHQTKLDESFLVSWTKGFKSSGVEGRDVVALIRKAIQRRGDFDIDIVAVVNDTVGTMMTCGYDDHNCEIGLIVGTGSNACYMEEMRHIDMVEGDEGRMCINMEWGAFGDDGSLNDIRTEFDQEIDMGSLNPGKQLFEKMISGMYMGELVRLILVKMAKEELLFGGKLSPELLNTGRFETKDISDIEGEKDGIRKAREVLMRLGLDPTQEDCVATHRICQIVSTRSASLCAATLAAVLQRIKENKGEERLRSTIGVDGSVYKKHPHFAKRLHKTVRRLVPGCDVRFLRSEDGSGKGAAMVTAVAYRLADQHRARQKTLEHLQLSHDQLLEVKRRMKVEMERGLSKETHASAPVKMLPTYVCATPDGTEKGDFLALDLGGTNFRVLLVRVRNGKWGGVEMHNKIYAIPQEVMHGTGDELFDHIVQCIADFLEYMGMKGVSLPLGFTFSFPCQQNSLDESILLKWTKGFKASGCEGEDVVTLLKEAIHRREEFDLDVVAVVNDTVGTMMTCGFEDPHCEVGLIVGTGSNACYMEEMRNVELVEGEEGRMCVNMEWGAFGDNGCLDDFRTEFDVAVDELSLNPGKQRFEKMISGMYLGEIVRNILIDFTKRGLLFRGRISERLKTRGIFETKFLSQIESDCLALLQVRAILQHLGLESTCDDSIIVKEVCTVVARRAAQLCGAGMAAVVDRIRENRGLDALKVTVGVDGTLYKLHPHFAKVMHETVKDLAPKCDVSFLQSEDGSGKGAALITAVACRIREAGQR
As to the kind of experiment: hexokinase2 activity and expression (ultra-high resolution mass spectrometry analysis, FIG. 16). Type of data set: cell-based. Conditions: GP-2250 treatment of cancer cells. As for the experimental part: as §2, §3

For a further data set, the system named is cancer cells. Kind of data set: glycolysis and ATP synthesis in cancer cells. Type of data set: cell-based, Human. The protocol: as §3
The test system of data set [5] is AKT. Kind of data set: in vivo pharmacodynamic experiment, OVCAR8 mouse model: AKT. Conditions: dose of 500 mg/kg. The protocol: as §1
(§4) FIGS. 17A-17B show pharmacodynamics studies of GP-2250.

Data set [6] relates to mTOR. Kind of data set: in vivo pharmacodynamic experiment, OVCAR8 mouse model: mTOR. Conditions: dose of 500 mg/kg. The protocol: as §1, §4
Another data set is described as follows: solubility. It counts as physicochemical.
Setting [7] is: Western blot, ovarian cancer cells treated for 24 hours.

For `O=C(c1cc(Cc2n[nH]c(=O)c3ccccc23)ccc1F)N1CCN(C(=O)C2CC2)CC1` [olaparib], in data set [1], the “tumor nodules (number)” value worked out at 3.3±0.64 and the tumor weight is 0.53 ± 0.09 g.

`O=S1(=O)CCOCN1` [GP-2250]: in data set [1], the “tumor nodules (number)” value is reported as 2.9±0.48 and the tumor weight turned out to be 2.9 ± 0.48 g. Moreover, the “cytotoxic effect: vulnerability of HRD versus HRP ovarian cancer cells” value in data set [2] (HRD cells (Kuramochi, OVCAR4, OVCAR8) compared with HRP cells (A2780, OVCAR5), both vulnerable) is recorded as “more vulnerable”. In addition, in [2] (ovarian cancer cells), the apoptosis result is given as “increased apoptosis” and the proliferation entry is reported as “reduced proliferation”. In the data set with HIF-1α (RPPA analyses), the “hypoxia-inducible factor-1a activation and expression level” value was “inhibited”. Moreover, the HIF-1α expression result in the data set with HIF-1α (setting [7]) is “inhibits”. Further, the “AKT activation and expression level” value in the data set on AKT [3] (RPPA analyses) is given as “inhibited”. Moreover, the AKT expression result with AKT [3] (setting [7]) is “inhibits”. For the same molecule, the “mTOR activation and expression level” value with mTOR [4] (RPPA analyses) is “inhibited”. The mTOR expression entry in the data set with mTOR [4] (setting [7]) is “inhibits”. Also, on hexokinase2, the “hexokinase2 activity and expression” value is “inhibition; also recorded: significantly reduced”. Further, in the data set on cancer cells, the ATP synthesis result is “reduced” and the glycolysis entry is “decreases; also recorded: reduced”. The “downregulation of AKT activation and expression” value in the data set with AKT [5] is reported as “most effective”. In the data set with mTOR [6], the “downregulation of mTOR activation and expression” value is “most effective”.

On to `CNCc1ccc(-c2[nH]c3cc(F)cc4c3c2CCNC4=O)cc1` [rucaparib], for which, in data set [1], the “tumor nodules (number)” value was determined as 4.85±0.79 and the tumor weight stood at 0.52 ± 0.1 g. In the data set “solubility”, the solubility result is “relatively poor solubility”.

With `NC(=O)c1cccc2cn(-c3ccc([C@@H]4CCCNC4)cc3)nc12` [niraparib], in data set [1], the “tumor nodules (number)” value was 3.4±0.44 and the tumor weight was determined as 0.38 ± 0.05 g.
